This is an account of results in US20110306597A1, “Nicotinamide Derivatives” (priority 2008, published 2011).

Molecules are shown by their SMILES. pIC50: −log10 of the molar value.

In the assay the target is human recombinant H-PGDS (Homo sapiens, UniProt O60760). Nature of the assay: Fluorescence Intensity h-PGDS TBA Enzyme Assay. The format is biochemical. The settings on record: 1:175,000 human recombinant H-PGDS, highest inhibitor concentration typically 1 μM. The gist of the method:
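Readout is PGH2 depletion: after a 42 s reaction with 5.0 μM PGH2 and 2.5 mM glutathione (pH 8.0 Tris, 10 min inhibitor preincubation), Fe(II) converts leftover PGH2 to MDA, which forms a fluorescent TBA complex. IC50s come from 11-point, 3-fold duplicate curves, 4-parameter fit.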

human recombinant H-PGDS, sequence (O60760 whole entry): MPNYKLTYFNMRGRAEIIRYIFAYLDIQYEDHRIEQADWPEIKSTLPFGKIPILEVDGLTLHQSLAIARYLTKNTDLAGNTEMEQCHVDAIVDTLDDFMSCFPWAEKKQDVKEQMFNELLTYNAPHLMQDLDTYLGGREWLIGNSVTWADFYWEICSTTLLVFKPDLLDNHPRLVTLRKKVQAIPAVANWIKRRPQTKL

For `COc1cccc(-c2ccc(C(=O)Nc3ccccc3)cn2)c1` [Example 308, 6-(3-Methoxyphenyl)-N-phenylnicotinamide], the pIC50 was 7.27.

Regarding `Cc1c[nH]c(CCNC(=O)c2ccc(-c3cccc(F)c3)nc2)n1` [Example 130, 6-(3-Fluorophenyl)-N-[2-(4-methyl-1H-imidazol-2-yl)ethyl]nicotinamide], the pIC50 is 7.40.

On to `O=C(NCCc1ccncc1)c1ccc(-c2ccccc2)nc1` [Example 356, 6-Phenyl-N-(2-pyridin-4-ylethyl)nicotinamide], for which the negative logarithm of the IC50 (pIC50) was 7.94.

Consider `Cc1ccc(CNC(=O)c2ccc(-c3ccccc3)nc2)cc1` [Example 365, N-(4-Methylbenzyl)-6-phenylnicotinamide], for which the pIC50 was 8.38.

`CN1CCN(CC(NC(=O)c2ccc(-c3cccc(F)c3)nc2)c2ccccc2)CC1` (centres unmarked) [Example 144, 6-(3-Fluorophenyl)-N-[2-(4-methylpiperazin-1-yl)-1-phenylethyl]nicotinamide]: the pIC50 is 6.96.

Regarding `O=C(NCCCCNC(=O)c1ccc(-c2cccc(F)c2)nc1)OCc1ccccc1` [Example 214, Benzyl [4-({[6-(3-fluorophenyl)pyridin-3-yl]carbonyl}amino)butyl] carbamate], the pIC50 is 7.68.

As to `O=C(NCCN1CCNC1=O)c1ccc(-c2ccccc2)nc1` [Example 375, N-[2-(2-Oxoimidazolidin-1-yl)ethyl]-6-phenylnicotinamide], the pIC50 is 7.59.

As to `COc1ccccc1-c1nnc(CCNC(=O)c2ccc(-c3cccc(F)c3)nc2)o1` [Example 16, 6-(3-Fluorophenyl)-N-{2-[5-(2-methoxyphenyl)-1,3,4-oxadiazol-2-yl]ethyl}nicotinamide], the pIC50 was 8.39.

`CC(O)CNC(=O)c1ccc(-c2ccc(F)cc2)nc1` (centres unmarked) [Example 262, 6-(4-Fluorophenyl)-N-(2-hydroxypropyl)nicotinamide]: the pIC50 is 6.00.

As for `CCc1cn2nc(N3C[C@H](NC(=O)c4ccc(-c5cccc(F)c5)nc4)[C@@H](O)C3)ccc2n1` [Example 564, N-[(3S,4S)-1-(2-ethylimidazo[1,2-b]pyridazin-6-yl)-4-hydroxypyrrolidin-3-yl]-6-(3-fluorophenyl)nicotinamide], the pIC50 was 7.21.

Consider `CC(NC(=O)c1ccc(-c2cccc(F)c2)nc1)C1CC1` (centres unmarked) [Example 128, N-(1-Cyclopropylethyl)-6-(3-fluorophenyl)nicotinamide], for which the pIC50 is 7.55.

In the case of `CC(C)N1CCC(CNC(=O)c2ccc(-c3cccc(F)c3)nc2)CC1` [Example 117, 6-(3-Fluorophenyl)-N-[(1-isopropylpiperidin-4-yl)methyl]nicotinamide], the pIC50 is 6.97.

As for `Cc1cccc(-c2ccc(C(=O)NCCc3nc(C)no3)cn2)c1` [Example 233, N-[2-(3-Methyl-1,2,4-oxadiazol-5-yl)ethyl]-6-(3-methylphenyl)nicotinamide], the pIC50 is 7.07.

For the molecule `O=C(NCc1ccc(-n2cncn2)cc1)c1ccc(-c2ccc(F)cc2)nc1` [Example 329, 6-(4-Fluorophenyl)-N-[4-(1H-1,2,4-triazol-1-yl)benzyl]nicotinamide], the pIC50 is 6.26.

With `CC(NC(=O)c1ccc(-c2ccccc2)nc1)c1ccccc1` (centres unmarked) [Example 516, 6-Phenyl-N-(1-phenylethyl)nicotinamide], the negative-log IC50 (pIC50) is 7.50.

On to `CN(C)CC(C)(C)CNC(=O)c1ccc(-c2cccc(F)c2)nc1` [Example 168, N-[3-(Dimethylamino)-2,2-dimethylpropyl]-6-(3-fluorophenyl)nicotinamide], for which the pIC50 was 6.76.

As to `O=C(NCC1COc2ccccc2C1)c1ccc(-c2cccc(F)c2)nc1` (centres unmarked) [Example 528, N-(3,4-Dihydro-2H-chromen-3-ylmethyl)-6-(3-fluorophenyl)nicotinamide], the pIC50 is 8.19.

As for `CCN1CCC[C@@H]1CNC(=O)c1ccc(-c2cccc(F)c2)nc1` [Example 74, N-{[(2R)-1-Ethylpyrrolidin-2-yl]methyl}-6-(3-fluorophenyl) nicotinamide], the pIC50 was 7.37.

`O=C(CNC(=O)c1ccc(-c2cccc(F)c2)nc1)OCc1ccccc1` [Example 418, Benzyl N-{[6-(3-fluorophenyl)pyridin-3-yl]carbonyl}glycinate]: the pIC50 is 7.02.

With `COCCn1cnnc1CNC(=O)c1ccc(-c2cccc(F)c2)nc1` [Example 23, 6-(3-Fluorophenyl)-N-{[4-(2-methoxyethyl)-4H-1,2,4-triazol-3-yl]methyl}nicotinamide], the negative-log IC50 (pIC50) was 6.97.

With `CCc1csc(CNC(=O)c2ccc(-c3cccc(F)c3)nc2)n1` [Example 61, N-[(4-Ethyl-1,3-thiazol-2-yl)methyl]-6-(3-fluorophenyl)nicotinamide], the pIC50 is 8.26.

With `COC(=O)CNC(=O)[C@H](C)NC(=O)c1ccc(-c2cccc(OC)c2)nc1` [Example 309, Methyl N-{[6-(3-methoxyphenyl)pyridin-3-yl]carbonyl}-L-alanylglycinate], the pIC50 was 6.25.

In the case of `COC(=O)[C@H](Cc1ccc(Cl)cc1)NC(=O)c1ccc(-c2cccc(F)c2)nc1` [Example 403, Methyl 4-chloro-N-{[6-(3-fluorophenyl)pyridin-3-yl]carbonyl}phenylalaninate], the pIC50 is 6.62.

Turning to `O=C(NCCN1CCCCC1=O)c1ccc(-c2ccc(F)cc2)nc1` [Example 493, 6-(4-Fluorophenyl)-N-[2-(2-oxopiperidin-1-yl)ethyl]nicotinamide], the pIC50 is 6.01.

Regarding `O=C(NCc1cccc(F)c1)c1ccc(-c2cccc(F)c2)nc1` [Example 405, N-(3-Fluorobenzyl)-6-(3-fluorophenyl)nicotinamide], the pIC50 was 6.68.

For `O=C(NCCc1nc(CN2CCOCC2)no1)c1ccc(-c2cccc(F)c2)nc1` [Example 35, 6-(3-Fluorophenyl)-N-{2-[3-(morpholin-4-ylmethyl)-1,2,4-oxadiazol-5-yl]ethyl}nicotinamide], the pIC50 is 7.29.

`N#CC(NC(=O)c1ccc(-c2ccccc2)nc1)C(=O)NCCN1CCOCC1` (centres unmarked) [Example 376, N-{1-Cyano-2-[(2-morpholin-4-ylethyl)amino]-2-oxoethyl}-6-phenylnicotinamide]: the pIC50 was 7.26.

Regarding `Cc1cccc(-c2ccc(C(=O)NCCN3CCCCC3=O)cn2)c1` [Example 224, 6-(3-Methylphenyl)-N-[2-(2-oxopiperidin-1-yl)ethyl]nicotinamide], the negative-log IC50 (pIC50) was 7.25.

Take `O=C(NCc1ccc(-n2cncn2)cc1)c1ccc(-c2cccc(F)c2)nc1` [Example 180, 6-(3-Fluorophenyl)-N-[4-(1H-1,2,4-triazol-1-yl)benzyl]nicotinamide]: the pIC50 was 7.64.

In the case of `COc1cccc(-c2ccc(C(=O)NCc3ccccc3C)cn2)c1` [Example 333, 6-(3-Methoxyphenyl)-N-(2-methylbenzyl)nicotinamide], the pIC50 was 7.11.

Take `COc1cccc(-c2ccc(C(=O)NCCN3CCCC3=O)cn2)c1` [Example 300, 6-(3-methoxyphenyl)-N-[2-(2-oxopyrrolidin-1-yl)ethyl]nicotinamide]: the pIC50 is 6.12.

On to `O=C(NC1CCN(Cc2ccc(Cl)cc2)C1=O)c1ccc(-c2ccccc2)nc1` (centres unmarked) [Example 377, N-[1-(4-Chlorobenzyl)-2-oxopyrrolidin-3-yl]-6-phenylnicotinamide], for which the pIC50 was 7.95.

`CCCCNC(=O)c1ccc(-c2cccc(OC)c2)nc1` [Example 289, N-Butyl-6-(3-methoxyphenyl)nicotinamide]: the pIC50 was 6.33.

In the case of `O=C(NCc1ccc(Cl)c(Cl)c1)c1ccc(-c2cccc(F)c2)nc1` [Example 154, N-(3,4-Dichlorobenzyl)-6-(3-fluorophenyl)nicotinamide], the pIC50 was 7.36.

For the molecule `Cc1cccc(-c2ccc(C(=O)NCCCNc3ccccn3)cn2)c1` [Example 231, 6-(3-Methylphenyl)-N-[3-(pyridin-2-ylamino)propyl]nicotinamide], the pIC50 was 8.10.

On to `Cc1cccc(-c2ccc(C(=O)NCCC3CCN(C)CC3)cn2)c1` [Example 253, 6-(3-Methylphenyl)-N-[2-(1-methylpiperidin-4-yl)ethyl]nicotinamide], for which the pIC50 was 7.00.

For the molecule `COc1cccc(-c2ccc(C(=O)NCc3ccc(C(F)(F)F)cc3)cn2)c1` [Example 286, 6-(3-Methoxyphenyl)-N-[4-(trifluoromethyl)benzyl] nicotinamide], the pIC50 is 6.27.

`Cc1cc(Br)ccc1NC(=O)c1ccc(-c2ccccc2)nc1` [Example 398, N-(4-Bromo-2-methylphenyl)-6-phenylnicotinamide]: the pIC50 is 8.48.

`COC(=O)CC(NC(=O)c1ccc(-c2cccc(C)c2)nc1)c1cccnc1` (centres unmarked) [Example 230, Methyl 3-({[6-(3-methylphenyl)pyridin-3-yl]carbonyl}amino)-3-pyridin-3-ylpropanoate]: the pIC50 is 7.33.

Consider `COc1ccc(C(N)CC(=O)NC(=O)c2ccc(-c3cccc(F)c3)nc2)cc1OC` (centres unmarked) [Example 196, N-[3-Amino-3-(3,4-dimethoxyphenyl)propanoyl]-6-(3-fluorophenyl)nicotinamide], for which the pIC50 was 7.91.

On to `O=C(NCCNc1ccccc1)c1ccc(-c2ccccc2)nc1` [Example 520, N-(2-Anilinoethyl)-6-phenylnicotinamide], for which the negative logarithm of the IC50 (pIC50) was 8.06.

With `COC(=O)[C@H](Cc1ccc(Cl)cc1)NC(=O)c1ccc(-c2cccc(OC)c2)nc1` [Example 306, Methyl 4-chloro-N-{[6-(3-methoxyphenyl)pyridin-3-yl]carbonyl}phenylalaninate], the pIC50 is 6.41.

Turning to `O=C(NCCC1CCCCO1)c1cnc(-c2cccc(F)c2)c(Cl)c1` (centres unmarked) [Example 553, 5-Chloro-6-(3-fluorophenyl)-N-[2-(tetrahydro-2H-pyran-2-yl)ethyl]nicotinamide], the negative logarithm of the IC50 (pIC50) was 7.50.

In the case of `O=C(NCCCn1ncc2ccccc21)c1cnc(-c2cccc(F)c2)c(Cl)c1` [Example 551, 5-Chloro-6-(3-fluorophenyl)-N-[3-(1H-indazol-1-yl)propyl]nicotinamide], the pIC50 is 7.07.
